Test results taken from PubChem BioAssay AID1259411 (Chemical Carcinogenesis Research Information System (CCRIS), 2018).
Active and inactive are the calls of the source. The rule behind the calls is not given here.

Tested on: rodent carcinogenicity bioassays, tumor incidence
Test: CCRIS carcinogenicity studies
How it was run: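 Archive of carcinogenicity, mutagenicity, tumor promotion and tumor inhibition results drawn from journals, NCI reports and other sources, expert-reviewed; covers 1985-2011 and is no longer updated.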

**Q.** `CCNc1nc(Cl)nc(NC(C)(C)C#N)n1` was tested. Which carcinogen call (Species: Mouse, Strain/Sex: CD/Female (50 per group; 100 per group for controls), Route: Oral, Dose: 0, 10, 25, 1,000 ppm of 98% pure cyanazine in feed for two yr, Dose: 0, 10, 25, 1,000 ppm of 98% pure cyanazine in feed for two yr) did it give?
**A.** Its carcinogen call is “inactive; negative”.

**Q.** What about the carcinogen call (Species: Mouse, Strain/Sex: CD/Male (50 per group; 100 per group for controls), Route: Oral, Dose: 0, 10, 25, 1,000 ppm of 98% pure cyanazine in feed for two yr, Dose: 0, 10, 25, 1,000 ppm of 98% pure cyanazine in feed for two yr) of the same compound?
**A.** Its carcinogen call is “inactive; negative”.

**Q.** What about the carcinogen call (Species: RAT, Strain/Sex: CRL:CD BR/FEMALE, Route: ORAL, Dose: 0, 1, 5, 25, 50 PPM FOR 104 WK (STUDY DURATION: 104 WK), Dose: 0, 1, 5, 25, 50 PPM FOR 104 WK (STUDY DURATION: 104 WK)) of the same compound?
**A.** The carcinogen call was “inactive; negative”.

**Q.** `O[C@@H]1[C@@H](O)[C@@H](O)OC[C@H]1O` was tested. Which carcinogen call (Species: RAT, Strain/Sex: F344/FEMALE, Route: ORAL (DIET), Dose: 0, 2.5%, 5% FOR 104 WKS (STUDY DURATION: 104 WKS), Dose: 0, 2.5%, 5% FOR 104 WKS (STUDY DURATION: 104 WKS)) did it give?
**A.** Its carcinogen call is “inactive; negative”.

**Q.** And the carcinogen call (Species: RAT, Strain/Sex: F344/MALE, Route: ORAL (DIET), Dose: 0, 2.5%, 5% FOR 104 WKS (STUDY DURATION: 104 WKS), Dose: 0, 2.5%, 5% FOR 104 WKS (STUDY DURATION: 104 WKS))?
**A.** The carcinogen call was “inactive; negative”.

**Q.** `Cc1cc(C)c(N)cc1C` was tested. Which carcinogen call (Species: MOUSE, Strain/Sex: B6C3F1/FEMALE, Route: ORAL, Dose: 0, 50, 100 PPM IN DIET FOR 101 WK (STUDY DURATION: 101 WK), Dose: 0, 50, 100 PPM IN DIET FOR 101 WK (STUDY DURATION: 101 WK), Tumor Site: Type of Lesion: LIVER: HEPATOCELLULAR CARCINOMA) did it give?
**A.** Its carcinogen call is “active; positive”.

**Q.** What about the carcinogen call (Species: MOUSE, Strain/Sex: B6C3F1/MALE, Route: ORAL, Dose: 0, 50, 100 PPM IN DIET FOR 101 WK (STUDY DURATION: 101 WK), Dose: 0, 50, 100 PPM IN DIET FOR 101 WK (STUDY DURATION: 101 WK), Tumor Site: Type of Lesion: LIVER: HEPATOCELLULAR CARCINOMA) of the same compound?
**A.** The carcinogen call was “equivocal”.

**Q.** What about the carcinogen call (Species: RAT, Strain/Sex: F344/FEMALE, Route: ORAL, Dose: 0, 200, 800 PPM IN DIET FOR 101 WK (STUDY DURATION: 101 WK), Dose: 0, 200, 800 PPM IN DIET FOR 101 WK (STUDY DURATION: 101 WK), Tumor Site: Type of Lesion: LUNG: ALVEOLAR/BRONCHIOLAR ADENOMA OR CARCINOMA, LIVER: HEPATOCELLULAR CARCINOMA OR NEOPLASTIC NODULE) of the same compound?
**A.** The carcinogen call was “active; positive”.

**Q.** And the carcinogen call (Species: RAT, Strain/Sex: F344/MALE, Route: ORAL, Dose: 0, 200, 800 PPM IN DIET FOR 101 WK (STUDY DURATION: 101 WK), Dose: 0, 200, 800 PPM IN DIET FOR 101 WK (STUDY DURATION: 101 WK), Tumor Site: Type of Lesion: LIVER: BILE DUCT CARCINOMA, HEPATOCELLULAR CARCINOMA OR NEOPLASTIC NODULE)?
**A.** The carcinogen call was “active; positive”.

**Q.** Which carcinogen call (Species: MOUSE, Strain/Sex: SWISS/FEMALE, Route: INTRAPERITONEAL, Dose: 0, 2.7, 13.7 UMOL ADMINISTERED AS 3 UNEQUAL DOSES (1/7, 2/7, AND 4/7 OF THE TOTAL DOSE) OVER A 2-WK PERIOD (STUDY DURATI, Dose: 0, 2.7, 13.7 UMOL ADMINISTERED AS 3 UNEQUAL DOSES (1/7, 2/7, AND 4/7 OF THE TOTAL DOSE) OVER A 2-WK PERIOD (STUDY DURATI) does the source give for `O[C@H]1[C@@H]2O[C@@H]2C=C[C@@H]1O` here?
**A.** Its carcinogen call is “inactive; negative”.

**Q.** What about the carcinogen call (Species: MOUSE, Strain/Sex: SWISS/MALE, Route: INTRAPERITONEAL, Dose: 0, 2.7, 13.7 UMOL ADMINISTERED AS 3 UNEQUAL DOSES (1/7, 2/7, AND 4/7 OF THE TOTAL DOSE) OVER A 2-WK PERIOD (STUDY DURATI, Dose: 0, 2.7, 13.7 UMOL ADMINISTERED AS 3 UNEQUAL DOSES (1/7, 2/7, AND 4/7 OF THE TOTAL DOSE) OVER A 2-WK PERIOD (STUDY DURATI) of the same compound?
**A.** The carcinogen call was “inactive; negative”.

**Q.** With `c1ccc2c(c1)ccc1c3ccccc3sc21` as the compound, how does the carcinogen call (Species: RAT, Strain/Sex: OSBORNE-MENDEL/FEMALE, Route: INTRAPULMONARY IMPLANT, Dose: 0, 1, 3, 6 MG IN BEESWAX AND TRIOCTANOIN IMPLANTED IN LUNG (STUDY DURATION: 141 WK), Dose: 0, 1, 3, 6 MG IN BEESWAX AND TRIOCTANOIN IMPLANTED IN LUNG (STUDY DURATION: 141 WK), Tumor Site: Type of Lesion: LUNG: CARCINOMA) read?
**A.** The carcinogen call was “active; positive”.

**Q.** Which results are given for `CCNc1nc(Cl)nc(NC(C)C)n1`?
**A.** carcinogen call (Species: RAT, Strain/Sex: F344/FEMALE, Route: ORAL, Dose: 0, 10, 70, 200, 400 PPM IN DIET FOR 24 MO (STUDY DURATION: 24 MO), Dose: 0, 10, 70, 200, 400 PPM IN DIET FOR 24 MO (STUDY DURATION: 24 MO)): inactive; negative; carcinogen call (Species: RAT, Strain/Sex: F344/LATI/FEMALE, Route: ORAL, Dose: 0, 500, 1000 PPM TECHNICAL GRADE IN FEED FOR 8 WK THEN 0, 375, 750 PPM FOR LIFE SPAN (STUDY DURATION: LIFE SPAN), Dose: 0, 500, 1000 PPM TECHNICAL GRADE IN FEED FOR 8 WK THEN 0, 375, 750 PPM FOR LIFE SPAN (STUDY DURATION: LIFE SPAN), Tumor Site: Type of Lesion: UTERUS: ADENOCARCINOMA, HEMATOPOIETIC SYSTEM: LEUKEMIA OR LYMPHOMA): active; positive; carcinogen call (Species: RAT, Strain/Sex: F344/LATI/MALE, Route: ORAL, Dose: 0, 500, 1000 PPM TECHNICAL GRADE IN FEED FOR 8 WK THEN 0, 375, 750 PPM FOR LIFE SPAN (STUDY DURATION: LIFE SPAN), Dose: 0, 500, 1000 PPM TECHNICAL GRADE IN FEED FOR 8 WK THEN 0, 375, 750 PPM FOR LIFE SPAN (STUDY DURATION: LIFE SPAN), Tumor Site: Type of Lesion: MAMMARY GLAND: BENIGN TUMOR): active; positive; carcinogen call (Species: RAT, Strain/Sex: SPRAGUE-DAWLEY/FEMALE, Route: ORAL, Dose: 0, 70, 400 PPM IN DIET FOR 24 MO (STUDY DURATION: 24 MO), Dose: 0, 70, 400 PPM IN DIET FOR 24 MO (STUDY DURATION: 24 MO)): inactive; negative

**Q.** Which carcinogen call (Species: RAT, Route: ORAL, Tumor Site: Type of Lesion: LIVER) does the source give for `Cc1cc(C)c(N=Nc2c(O)c(S(=O)(=O)O)cc3cc(S(=O)(=O)O)ccc23)cc1C` here?
**A.** Its carcinogen call is “active; positive”.

**Q.** Which results are given for `N#CN=C(N)N`?
**A.** carcinogen call (Species: RAT, Strain/Sex: F344/FEMALE, Route: ORAL, Dose: 0, 2.5, 5% IN DIET FOR 104 WK (STUDY DURATION: 113 WK), Dose: 0, 2.5, 5% IN DIET FOR 104 WK (STUDY DURATION: 113 WK)): inactive; negative; carcinogen call (Species: RAT, Strain/Sex: F344/MALE, Route: ORAL, Dose: 0, 2.5, 5% IN DIET FOR 104 WK (STUDY DURATION: 113 WK), Dose: 0, 2.5, 5% IN DIET FOR 104 WK (STUDY DURATION: 113 WK)): inactive; negative
